Measurements reported in PubChem BioAssay AID1918934 (Molecular Pharmacology Branch, DTP, NCI, 2023).

Test system: 292921-168-R-J2-PDC complex spheroid viability
Experiment: Anticancer human tumor 292921-168-R-J2-PDC patient-derived pancreatic carcinoma cell line growth inhibition
Conditions: for IC50: curve of first compound; for viability, T/C: stronger effect = lower value
How it was run: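 Complex spheroids of tumor cells with HUVEC and human MSCs, exposed to iadademstat combined with other agents. Each agent tested in half-log steps from near clinical Cmax (else 10 microM top), DMSO ≤0.25%.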

[1] = second compound 0.1 µM, first compound 0.0316 µM
[2] = second compound 0.1 µM, first compound 0.1 µM
[3] = second compound 0.1 µM, first compound 0.316 µM
[4] = second compound 0.1 µM, first compound 1 µM
[5] = second compound 0.1 µM, first compound 3.16 µM
[6] = second compound 0.1 µM, first compound 10 µM
[7] = second compound 0.316 µM, first compound 0.0316 µM
[8] = second compound 0.316 µM, first compound 0.1 µM
[9] = second compound 0.316 µM, first compound 0.316 µM
[10] = second compound 0.316 µM, first compound 1 µM
[11] = second compound 0.316 µM, first compound 3.16 µM
[12] = second compound 0.316 µM, first compound 10 µM
[13] = second compound 1 µM, first compound 0.0316 µM
[14] = second compound 1 µM, first compound 0.1 µM
[15] = second compound 1 µM, first compound 0.316 µM
[16] = second compound 1 µM, first compound 1 µM
[17] = second compound 1 µM, first compound 3.16 µM
[18] = second compound 1 µM, first compound 10 µM
[19] = second compound 3.16 µM, first compound 0.0316 µM
[20] = second compound 3.16 µM, first compound 0.1 µM
[21] = second compound 3.16 µM, first compound 0.316 µM
[22] = second compound 3.16 µM, first compound 1 µM
[23] = second compound 3.16 µM, first compound 3.16 µM
[24] = second compound 3.16 µM, first compound 10 µM
[25] = second compound 10 µM, first compound 0.0316 µM
[26] = second compound 10 µM, first compound 0.1 µM
[27] = second compound 10 µM, first compound 0.316 µM
[28] = second compound 10 µM, first compound 1 µM
[29] = second compound 10 µM, first compound 3.16 µM
[30] = second compound 10 µM, first compound 10 µM
[31] = second compound 0.1 µM, first compound 0.00316 µM
[32] = second compound 0.1 µM, first compound 0.01 µM
[33] = second compound 0.316 µM, first compound 0.00316 µM
[34] = second compound 0.316 µM, first compound 0.01 µM
[35] = second compound 1 µM, first compound 0.00316 µM
[36] = second compound 1 µM, first compound 0.01 µM
[37] = second compound 3.16 µM, first compound 0.00316 µM
[38] = second compound 3.16 µM, first compound 0.01 µM
[39] = second compound 10 µM, first compound 0.00316 µM
[40] = second compound 10 µM, first compound 0.01 µM
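Also: seven day compound exposure before luminescent viability read.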
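For viability, T/C in this document: 100% = DMSO vehicle control wells.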

Row | Structure (SMILES) | IC50 (second compound 0.1 µM) [µM] | IC50 (second compound 0.316 µM) [µM] | IC50 (second compound 1 µM) [µM] | IC50 (second compound 3.16 µM) [µM] | IC50 (second compound 10 µM) [µM] | viability, T/C [1] [%] | viability, T/C [2] [%] | viability, T/C [3] [%] | viability, T/C [4] [%] | viability, T/C [7] [%] | viability, T/C [8] [%] | viability, T/C [9] [%] | viability, T/C [10] [%] | viability, T/C [13] [%] | viability, T/C [14] [%] | viability, T/C [15] [%] | viability, T/C [16] [%] | viability, T/C [19] [%] | viability, T/C [20] [%] | viability, T/C [21] [%] | other results
1 | CC(C)c1c(-c2ccccc2)nc2c(C#N)c[nH]n2c1=O + NC1CCC(NC2CC2c2ccccc2)CC1 | > 10 | > 10 | > 10 | 9.72 | 1.68 | 63.4 | 67.2 | 59.7 | 70 | 63.1 | 60.1 | 63.6 | 64.2 | 52.7 | 55.4 | 54.2 | 57.5 | 55.7 | 55.3 | 52.8 | viability, T/C [5]: 61.1%; viability, T/C [6]: 57%; viability, T/C [11]: 64.2%; viability, T/C [12]: 51.3%; viability, T/C [17]: 57.4%; viability, T/C [18]: 51.6%; viability, T/C [22]: 56.1%; viability, T/C [23]: 49%; viability, T/C [24]: 49.9%; viability, T/C [25]: 52.9%; viability, T/C [26]: 53.8%; viability, T/C [27]: 53.2%; viability, T/C [28]: 54.6%; viability, T/C [29]: 45.6%; viability, T/C [30]: 40%
2 | CC1COCCN1c1cc(-c2ccnn2C)c2ccnc(-c3ccn[nH]3)c2n1 (stereo not given) + NC1CCC(NC2CC2c2ccccc2)CC1 | < 0.00316 | < 0.00316 | < 0.00316 | < 0.00316 | < 0.00316 | 13 | 16.4 | 18.4 | 19.3 | 12 | 15.7 | 16.9 | 18.3 | 13.5 | 14.2 | 14.8 | 17.2 | 12.2 | 13.5 | 15.3 | viability, T/C [31]: 14.1%; viability, T/C [32]: 12.3%; viability, T/C [33]: 15.7%; viability, T/C [34]: 14.8%; viability, T/C [35]: 14.4%; viability, T/C [36]: 15.1%; viability, T/C [37]: 15.7%; viability, T/C [38]: 15.5%; viability, T/C [22]: 16%; viability, T/C [39]: 13.7%; viability, T/C [40]: 14%; viability, T/C [25]: 12.3%; viability, T/C [26]: 12.5%; viability, T/C [27]: 14.2%; viability, T/C [28]: 17.3%
3 | COc1ccc([C@@H](O)c2cc(-c3ncnc4cc(N5CCOCC5)ccc34)c(F)cc2Cl)nn1 + NC1CCC(NC2CC2c2ccccc2)CC1 | 0.205 | 0.191 | 0.102 | 0.101 | 0.035 | 61.8 | 61.3 | 42.7 | 30.4 | 61.1 | 57.7 | 44.4 | 26.2 | 59.9 | 50.4 | 38.1 | 24.9 | 50 | 53.7 | 40.4 | viability, T/C [5]: 19.9%; viability, T/C [6]: 11.7%; viability, T/C [11]: 17.1%; viability, T/C [12]: 11.8%; viability, T/C [17]: 18.4%; viability, T/C [18]: 11.2%; viability, T/C [22]: 27.1%; viability, T/C [23]: 16.4%; viability, T/C [24]: 10.7%; viability, T/C [25]: 48.6%; viability, T/C [26]: 50%; viability, T/C [27]: 36.2%; viability, T/C [28]: 28.2%; viability, T/C [29]: 18.1%; viability, T/C [30]: 11.6%
4 | O=C(C=Cn1cnc(-c2cc(C(F)(F)F)cc(C(F)(F)F)c2)n1)NNc1cnccn1 + NC1CCC(NC2CC2c2ccccc2)CC1 | 0.00543 | 0.00867 | 0.0106 | 0.00677 | 0.00592 | 25.9 | 13.2 | 6.69 | 6.34 | 27 | 13.6 | 8.09 | 7.2 | 29 | 13.8 | 9.01 | 7.09 | 29.9 | 12.9 | 8.57 | viability, T/C [31]: 52.7%; viability, T/C [32]: 47.4%; viability, T/C [33]: 54.7%; viability, T/C [34]: 50.4%; viability, T/C [35]: 56.7%; viability, T/C [36]: 52.1%; viability, T/C [37]: 53%; viability, T/C [38]: 48.5%; viability, T/C [22]: 8.41%; viability, T/C [39]: 53.2%; viability, T/C [40]: 47.8%; viability, T/C [25]: 30.2%; viability, T/C [26]: 16.3%; viability, T/C [27]: 9.15%; viability, T/C [28]: 8.4%
